From article PMC3683333, “^11C-LY2428703, a positron emission tomographic radioligand for the metabotropic glutamate receptor 1, is unsuitable for imaging in monkey and human brains” (EJNMMI Research, 2013)

Key:
[1] = In vitro stability in human blood and plasma; assay type: in vitro ADME; conditions: room temperature, 30 min
Method: (§1) Nonradioactive anticoagulated blood was obtained on the day of study from either human or nonhuman primates. Aliquots of ^11C-LY2428703 (about 150 kBq) were added to 0.5 mL of whole blood or 0.5 mL of plasma. Samples were incubated at room temperature for 30 min, after which either 450 μL of the radioactive plasma was added to 720 μL of acetonitrile or 200 μL of the radioactive whole blood was added to 300 μL of water. The tube containing the blood suspension was shaken well to mix and lyse the blood cells. Seven hundred and twenty microliters of acetonitrile was subsequently added and mixed well to precipitate the proteins, followed by 100 μL of water, which was again re-mixed. Radioactivity in the tubes was measured in a gamma counter and then centrifuged at 10,000×g for 1 min. The clear supernatant liquid was injected into the high-performance liquid chromatography (HPLC) column and the precipitate counted to calculate the recovery of radioactivity into the acetonitrile.
(§2) The stability of the radioligand in whole blood or plasma was calculated as the ratio of the HPLC % composition of samples divided by the radiochemical purity of the radioligand.

[2] = test system: ABCB1 (P-gp) and ABCG2 (BCRP); assay: Brain PET after blockade of efflux transporters, monkey; assay type: in vivo, rhesus monkeys (Macaca mulatta)
Method: Four male rhesus monkeys (Macaca mulatta, 11.7 ± 2.9 kg) were imaged in 13 PET scans. Seven scans were performed at baseline, three scans were performed after receptor blocking to calculate nondisplaceable uptake (VND), and three scans were performed after blockade of the efflux transporters at the blood–brain barrier. Receptors were blocked by mixing ^11C-LY2428703 with an mGluR1 antagonist - either nonradioactive LY2428703 (2.0 mg/kg) or LY2332084 (0.5 mg/kg) - in the same syringe. Efflux transporters were blocked in two scans by injecting DCPQ, which selectively blocks the efflux transporter ABCB1 (P-gp), and in one scan by injecting elacridar, which blocks both ABCB1 (P-gp) and ABCG2 (BCRP).
(§3) PET images were acquired using either the high-resolution research tomograph (HRRT) or the FOCUS 220 scanner (Siemens/CPS, Knoxville, TN, USA) for 120 min in 33 frames, with frame durations ranging from 30 s to 5 min, and correcting for attenuation and scatter. About 2 h before the PET scan, anesthesia was initiated with ketamine (10 mg/kg IM) and then maintained with 1% to 3% isoflurane. Electrocardiograph, body temperature, heart rate, and respiration rate were measured throughout the experiment. At baseline, the injected activity was 210 ± 51 MBq (specific activity at time of injection 43.2 ± 25.6 GBq/μmol, mass dose 6.9 ± 4.7 nmol or 0.62 ± 0.35 nmol/kg). Tissue time-activity curves were obtained from semi-automatic regions of interest encompassing the whole cerebellum and the rest of the brain. Brain uptake was expressed as standardized uptake value (SUV). Arterial input function was obtained for eight scans: four at baseline, two after blocking with nonradioactive LY2428703, one after blocking with DCPQ, and one after blocking with elacridar. Blood samples (0.5 mL each) were drawn through a port connected to the femoral artery at 15-s intervals until 2 min, followed by 1-mL samples at 3, 5, 10, 30, 60, 90, and 120 min. The plasma time-activity curve was corrected for the fraction of unchanged radioligand following the procedure detailed above.
Volumes of distribution (VT) were obtained by nonlinear compartmental analysis. Goodness-of-fit by nonlinear least squares analysis was evaluated using the Akaike Information Criterion (AIC) and Model Selection Criterion (MSC). The most appropriate model is that with the smallest AIC and the largest MSC score. Goodness-of-fit by the compartment models was compared with F statistics. A value of P < 0.05 was considered significant for F statistics. The identifiability of kinetic variables was calculated as standard error obtained from the diagonal of the covariance matrix and expressed as a percentage of the rate constant.

mGluR1 [3] = target: T1, mGluR1 (Macaca mulatta, UniProt I2CU04); assay: Saturation binding assay with [^3H]LY456066, monkey cerebellar membranes; design: species or system rhesus monkeys; conditions: monkeys
T1 construct: P2 membrane fractions were prepared from the cerebella of; from tissue; host or cells: rhesus monkey cerebellum, P2 membrane fraction
T1 sequence (I2CU04 19-1195): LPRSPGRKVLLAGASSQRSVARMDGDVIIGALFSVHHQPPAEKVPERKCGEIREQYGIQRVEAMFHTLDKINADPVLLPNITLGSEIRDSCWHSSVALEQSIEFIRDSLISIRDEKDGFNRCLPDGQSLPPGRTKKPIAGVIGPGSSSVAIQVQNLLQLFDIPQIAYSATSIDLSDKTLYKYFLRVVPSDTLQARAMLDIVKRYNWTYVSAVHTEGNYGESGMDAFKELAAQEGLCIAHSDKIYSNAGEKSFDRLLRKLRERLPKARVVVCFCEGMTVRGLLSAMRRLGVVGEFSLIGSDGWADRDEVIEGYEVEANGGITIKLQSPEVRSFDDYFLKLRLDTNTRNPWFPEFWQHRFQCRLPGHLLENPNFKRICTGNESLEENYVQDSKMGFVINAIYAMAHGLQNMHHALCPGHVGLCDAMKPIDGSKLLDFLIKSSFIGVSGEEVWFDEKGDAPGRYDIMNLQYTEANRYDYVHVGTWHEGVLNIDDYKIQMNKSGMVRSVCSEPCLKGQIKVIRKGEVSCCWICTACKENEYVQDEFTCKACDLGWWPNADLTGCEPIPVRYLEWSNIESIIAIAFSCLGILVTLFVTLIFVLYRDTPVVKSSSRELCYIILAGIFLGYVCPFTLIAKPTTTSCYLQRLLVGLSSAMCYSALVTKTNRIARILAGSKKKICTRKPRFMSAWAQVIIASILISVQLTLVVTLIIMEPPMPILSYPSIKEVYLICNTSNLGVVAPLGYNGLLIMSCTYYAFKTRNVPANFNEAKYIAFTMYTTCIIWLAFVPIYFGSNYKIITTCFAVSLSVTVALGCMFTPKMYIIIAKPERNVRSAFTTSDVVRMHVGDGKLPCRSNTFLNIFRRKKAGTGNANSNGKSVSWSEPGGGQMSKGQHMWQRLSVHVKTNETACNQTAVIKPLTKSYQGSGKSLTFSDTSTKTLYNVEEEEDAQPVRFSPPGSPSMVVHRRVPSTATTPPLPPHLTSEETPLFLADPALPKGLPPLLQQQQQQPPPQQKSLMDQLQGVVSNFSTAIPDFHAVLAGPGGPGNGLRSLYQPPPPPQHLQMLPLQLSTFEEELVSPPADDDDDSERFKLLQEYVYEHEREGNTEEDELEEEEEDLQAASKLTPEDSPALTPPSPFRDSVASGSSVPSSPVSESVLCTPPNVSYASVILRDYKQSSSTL
Method: (§4) P2 membrane fractions were prepared from the cerebella of male Sprague–Dawley rats (n = 3), male rhesus monkeys (n = 3), and female humans (n = 4). […] Nonspecific binding was defined by heterologous displacement of 1 μM LY480084 (mGlu1 antagonist) in select wells. Plates were incubated on ice for 75 min and membranes harvested on 0.3% polyethylenimine pretreated Wallac filter mats using a Tomtec Harvester MachII (Tomtec, Hamden, CT, USA). Dissociation constant (KD) and receptor density (Bmax) values were obtained in GraphPad Prism using standard nonlinear one-site binding equations. Data are presented as mean ± SEM (n = 3 to 4); one-way analysis of variance followed by Tukey's post hoc test.

[4] = Brain exposure comparison of five radioligands; assay type: in vivo, human; conditions: in vivo
Method: Another complicating factor is low delivery to brain (i.e., low drug exposure), which may have cause low brain uptake. We compared five different radioligands from previous studies with regard to exposure to brain (Table 3) and measured the area under the curve of plasma concentration vs. time from 0 to 20 min. […] The effective exposure was thus named because only the free concentration of drug can cross the blood–brain barrier. ^11C-LY2428703 had the highest exposure value among the tracers tested. This high exposure was due to the slow wash-out of the tracer from the vascular compartment and to negligible metabolism in plasma, that is, parent radioligand represented 99% of plasma radioactivity even at the end of the 2-h scanning session.

[5] = In vitro stability in nonhuman primate blood and plasma; assay type: in vitro ADME; conditions: monkey, room temperature
Method: as §1, §2

[6] = Pharmacological effects of injection, monkey; assay type: in vivo, rhesus monkeys; conditions: after injection
Method: as §3

mGluR1 [7] = target: T2, mGluR1 (Rattus norvegicus, UniProt P23385); assay: Saturation binding assay with [^3H]LY456066, rat cerebellar membranes; design: species or system Sprague–Dawley rats; conditions: rats; fp from ref 10
T2 construct: P2 membrane fractions were prepared from the cerebella of male Sprague–Dawley rats; from tissue; host or cells: rat cerebellum, P2 membrane fraction
T2 sequence (P23385 19-1199): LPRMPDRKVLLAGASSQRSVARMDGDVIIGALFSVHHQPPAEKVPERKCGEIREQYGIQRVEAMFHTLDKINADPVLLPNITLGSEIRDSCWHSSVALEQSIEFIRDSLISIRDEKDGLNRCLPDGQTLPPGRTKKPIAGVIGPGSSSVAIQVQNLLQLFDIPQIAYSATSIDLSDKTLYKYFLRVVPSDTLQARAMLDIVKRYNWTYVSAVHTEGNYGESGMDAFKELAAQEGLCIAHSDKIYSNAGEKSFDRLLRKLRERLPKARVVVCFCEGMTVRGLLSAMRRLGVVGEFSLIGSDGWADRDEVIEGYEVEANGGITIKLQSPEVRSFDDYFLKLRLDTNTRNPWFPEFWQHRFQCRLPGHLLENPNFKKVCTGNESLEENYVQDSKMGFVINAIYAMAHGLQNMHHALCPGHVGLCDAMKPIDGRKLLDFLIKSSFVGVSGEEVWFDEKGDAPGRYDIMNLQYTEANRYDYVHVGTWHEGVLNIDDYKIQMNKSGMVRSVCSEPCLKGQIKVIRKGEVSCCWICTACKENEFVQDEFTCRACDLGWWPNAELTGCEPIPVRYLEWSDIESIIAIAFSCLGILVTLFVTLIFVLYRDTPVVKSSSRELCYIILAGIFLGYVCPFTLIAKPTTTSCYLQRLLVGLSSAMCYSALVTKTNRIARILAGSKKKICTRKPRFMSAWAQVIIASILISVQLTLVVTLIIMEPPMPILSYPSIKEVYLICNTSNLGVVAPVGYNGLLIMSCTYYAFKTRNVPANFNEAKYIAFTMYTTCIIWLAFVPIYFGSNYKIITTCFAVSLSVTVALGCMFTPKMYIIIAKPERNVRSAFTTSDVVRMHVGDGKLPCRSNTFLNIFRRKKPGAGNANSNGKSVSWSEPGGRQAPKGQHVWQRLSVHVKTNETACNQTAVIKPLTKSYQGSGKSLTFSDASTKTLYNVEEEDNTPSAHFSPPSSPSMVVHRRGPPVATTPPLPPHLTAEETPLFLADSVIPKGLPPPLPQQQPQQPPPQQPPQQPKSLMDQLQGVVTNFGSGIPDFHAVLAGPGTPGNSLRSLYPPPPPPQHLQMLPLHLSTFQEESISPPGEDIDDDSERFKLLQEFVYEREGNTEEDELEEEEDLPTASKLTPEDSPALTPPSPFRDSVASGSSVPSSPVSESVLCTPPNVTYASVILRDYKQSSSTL
Method: as §4

[8] = room temperature, octanol; cited from earlier work
P-gp = test system: P-gp; design: method as in PMID 23135321; conditions: previous in vitro analyses; cited from earlier work

tracer stability ([1]; human plasma): 99.4 ± 1.4% | tracer stability ([1]; human whole blood): 99.5 ± 1.1% | VT in cerebellum ([2]; DCPQ experiment: baseline): 4.4 mL/cm^3 | VT in cerebellum ([2]; after DCPQ blockade (P-gp)): 4.2 mL/cm^3 | VT in cerebellum ([2]; after elacridar blockade (P-gp and BCRP)): 0.8 mL/cm^3 | substrate for P-gp or BCRP ([2]; based on pharmacological blockade): not a substrate | VT in cerebellum ([2]; elacridar experiment: baseline): 2.0 mL/cm^3 | fp × Bmax/KD (=VS), effective BP (mGluR1 [3]): 0.161 | Brain peak SUV [4]: ~0.5 SUV | Effective exposure (E × fp) [4]: 0.19 | stability in whole blood and plasma [5]: completely stable | fp × Bmax/KD (=VS), effective BP (mGluR1 [7]): 0.683
SMILES: Cc1c(-c2ccc(O[11CH3])cc2)nsc1NC(=O)[C@@H]1C[C@H]1C [^11C-LY2428703]
changes in pulse/heart rate, respiratory rate, electrocardiogram [6]: no significant changes | LogD [8]: 4.02 | substrate for P-gp (P-gp): not a substrate
